The values below come from patent US20250101001A1 (priority 2021, published 2025).

What is called IC50 is the point on the concentration scale where inhibition reaches its midpoint. Higher therefore signals a need for much substance. By EC50 is commonly meant the concentration that produces a half-maximal response. A lower EC50 goes with a more potent agent.

Assay [1] concerns 5HT2A sensor. It is filed as cell-based.
The format of assay [2] is in vivo. The settings on record: mice. As for the experimental part:
Head twitch response (HTR) experiments. C57BL/6J Mice (9-10 weeks old) are housed following an IACUC approved protocol. The mice are habituated in the test cage for at least 30 min, injected intraperitoneally with compound (injection volume 5 ml/kg), returned to the empty test cage, and filmed for 20 minutes. Each video is scored for the number of head-twitches by a trained observer blinded to treatment condition.

Assay [3] relates to 5HT2A sensor. In kind it is cell-based. The source holds these as a separate data set.
The target in assay [4] is T1, 5-HT2A (Homo sapiens, UniProt P28223). The assay is described as follows: Serotonin 5-HT2A in vitro radioligand binding competition assay ([3H]-DOI). On the set-up: purchased Epics Therapeutics S. A. (Belgium) FAST-0505B. The settings on record: [3H]-DOI competition, membrane extracts. As for the experimental part:
Serotonin 5-HT2A In Vitro Radioligand Binding Competition Assay. The 5-HT2A radioligand binding competition assay was performed at Epics Therapeutics S. A. (Belgium, FAST-0505B) using conventional methods. Briefly, competition binding was performed in duplicate in the wells of a 96 well plate (Master Block, Greiner, 786201) containing binding buffer (optimized for each receptor), membrane extracts (amount of protein/well optimized for each receptor), radiotracer [^3H]-DOI (final concentration optimized for each receptor) and test compound. Nonspecific binding was determined by co-incubation with 200-fold excess of cold competitor. The samples were incubated in a final volume of 0.1 ml at a temperature and for a duration optimized for each receptor and then filtered over filter plates. Filters were washed six times with 0.5 ml of ice-cold washing buffer (optimized for each receptor) and 50 μl of Microscint 20 (Packard) were added in each well. The plates were incubated 15 min on an orbital shaker and then counted with a TopCount™ for 1 min/well.

Assay [5] has as its target T1, 5-HT2A. The assay is described as follows: Serotonin 5-HT2A in vitro cellular IPOne antagonism assay. It is filed as cell-based. On the set-up: host or cells: CHO-K1. Conditions: CHO-K1 cells, IPOne HTRF, reference agonist a-Me-5HT. As for the experimental part: Serotonin 5-HT2A and 5-HT2C In Vitro Cellular IPOne Antagonism Assay. The 5-HT2A and 5-HT2C IPOne HTRF assay was performed at Epics Therapeutics S.A. (Belgium, FAST-0505I) in antagonism mode using conventional methods. Briefly, CHO-K1 cells expressing human recombinant 5-HT2A or 5-HT2C receptor grown to mid-log phase in culture media without antibiotics were detached with PBS-EDTA, centrifuged, and resuspended in medium without antibiotics buffer. 20,000 cells were distributed in a 96 well plate and incubated overnight at 37° C. with 5% C02.
For antagonist testing, a reference agonist a-Me-5HT was added and fluorescence signal monitored for several minutes, followed by addition of 20 μlof assay buffer plus 20 μl of test compound or reference antagonist ketanserin, in each well. The plate was incubated for 60 min. at 37° C. with 5% CO2.
(§1) After addition of the lysis buffer containing IP1-d2 and anti-IP1 cryptate detection reagents, plates were incubated 1-hour at room temperature, and fluorescence ratios were measured according to the manufacturer specification, with the HTRF kit.

Assay [6] addresses T1, 5-HT2A. The assay is described as follows: Serotonin 5-HT2A in vitro cellular IPOne agonism assay. On the set-up: host or cells: CHO-K1. The settings on record: CHO-K1 cells, IPOne HTRF, agonist mode. In kind it is cell-based. As for the experimental part:
Serotonin 5-HT2A In Vitro Cellular IPOne Agonism Assay. The 5-HT2A IPOne HTRF assay was performed at Epics Therapeutics S.A. (Belgium, FAST-0505I) using conventional methods. Briefly, CHO-K1 cells expressing human recombinant 5-HT2A receptor grown to mid-log phase in culture media without antibiotics were detached with PBS-EDTA, centrifuged, and resuspended in medium without antibiotics buffer. 20,000 cells are distributed in a 96 well plate and incubated overnight at 37° C. with 5% Co2.
For agonist testing, the medium was removed and […] of assay buffer plus 20 μl of test compound or reference agonist were added in each well. The plate was incubated for 60 min. at 37° C. with 5% CO2.
as §1
On the technique in general: Time-resolved FRET reads energy transfer from a long-lived donor to a nearby acceptor.

T1 sequence (P28223 whole entry): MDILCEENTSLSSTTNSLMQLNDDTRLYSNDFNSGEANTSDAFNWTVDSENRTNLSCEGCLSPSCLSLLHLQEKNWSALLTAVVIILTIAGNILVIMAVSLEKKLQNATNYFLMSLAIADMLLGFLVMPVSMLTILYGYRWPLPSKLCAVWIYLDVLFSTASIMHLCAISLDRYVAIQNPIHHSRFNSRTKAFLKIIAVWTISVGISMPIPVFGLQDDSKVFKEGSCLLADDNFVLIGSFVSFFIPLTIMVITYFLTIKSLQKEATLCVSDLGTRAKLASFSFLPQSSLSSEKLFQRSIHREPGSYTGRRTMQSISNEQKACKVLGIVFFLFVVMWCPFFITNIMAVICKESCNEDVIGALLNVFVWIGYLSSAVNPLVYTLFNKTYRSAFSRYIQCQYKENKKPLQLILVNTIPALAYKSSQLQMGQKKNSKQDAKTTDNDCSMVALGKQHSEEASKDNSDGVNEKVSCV

On to 5-MeO-DMT [Compound 5-MeO-DMT], for which, in the assay with 5HT2A sensor [1], the “activation of the 5HT2A sensor assay in agonist mode” value (from here on “activation of the 5HT2A sensor assay”) is “activate the 5HT2A sensor assay in agonist mode”. For the same molecule, in assay [2], the “head-twitch response (HTR)” value was “produces a robust, dose-dependent head-twitch response”.
For 6-F-DET [Compound 6-F-DET], the “activation of the 5HT2A sensor assay” value with 5HT2A sensor [1] is listed as “do not activate the 5HT2A sensor assay in agonist mode”. In the assay on 5HT2A sensor [3], the “competition with 5-HT in the 5HT2A sensor assay in antagonist mode” value (shortened to “competition with 5-HT”) is “can compete with 5HT binding to 5HT2A”.
6-MeO-DMT [Compound 6-MeO-DMT]: the “activation of the 5HT2A sensor assay” value in the assay on 5HT2A sensor [1] is “do not activate the 5HT2A sensor assay in agonist mode”. For the same molecule, in the assay with 5HT2A sensor [3], the “competition with 5-HT” value is given as “compete off 5-HT”. In assay [2], the “head-twitch response (HTR)” value is given as “does not produce a HTR”.
For the molecule `COc1cc(CC(C)N)c(OC)cc1I.Cl` (racemic) [DOI], the “activation of the 5HT2A sensor assay” value with 5HT2A sensor [1] is “activate the 5HT2A sensor assay in agonist mode”.
In the case of `CN1CC(n2ccc3ccc(F)cc32)C1` [Compound 33, 6-fluoro-1-(1-methylazetidin-3-yl)-1H-indole], the IC50 at 5-HT2A [4] and on 5-HT2A [5] was 0.101 to 1 µM in each case. This molecule yielded an EC50 on 5-HT2A [6] above 10 µM.
Consider `CN1CC(n2ccc3cccc(F)c32)C1` [Compound 34, 7-fluoro-1-(1-methylazetidin-3-yl)-1H-indole], for which the half-inhibitory concentration (IC50) at 5-HT2A [4] lay within 0.101 to 1 µM; at 5-HT2A [5], 1 to 10 µM. For the same molecule, the half-maximal effective concentration (EC50) on 5-HT2A [6] is above 10 µM.
With `Cc1ccc2c(ccn2C2CN(C)C2)c1` [Compound 35, 5-methyl-1-(1-methylazetidin-3-yl)-1H-indole], the IC50 on 5-HT2A [4] and at 5-HT2A [5] was 1 to 10 µM each time. Moreover, on 5-HT2A [6], the EC50 is above 10 µM.
With `CN1CC(n2ccc3cc(Cl)ccc32)C1` [Compound 36, 5-chloro-1-(1-methylazetidin-3-yl)-1H-indole], the IC50 on 5-HT2A [4] and on 5-HT2A [5] was above 10 µM each time. In addition, on 5-HT2A [6], the EC50 is above 10 µM.
`CN1CC(n2ccc3cc(C#N)ccc32)C1` [Compound 37, 1-(1-methylazetidin-3-yl)-1H-indole-5-carbonitrile]: the IC50 at 5-HT2A [4] and on 5-HT2A [5] was above 10 µM throughout. Moreover, the concentration for a half-maximal effect (EC50) at 5-HT2A [6] was above 10 µM.
In the case of `CN(C)CCc1c[nH]c2ccccc12` [DMT, N,N-dimethyltryptamine], in the assay on 5HT2A sensor [1], the “activation of the 5HT2A sensor assay” value was “activate the 5HT2A sensor assay in agonist mode”.
For the molecule `O=C(c1ccc(F)cc1)C1CCN(CCn2c(=O)[nH]c3ccccc3c2=O)CC1` [Ketanserin], the “activation of the 5HT2A sensor assay” value with 5HT2A sensor [1] was “do not activate the 5HT2A sensor assay in agonist mode”. Moreover, the “competition with 5-HT” value in the assay on 5HT2A sensor [3] is “can compete with 5HT binding to 5HT2A”.
In the case of BOL148, the “activation of the 5HT2A sensor assay” value in the assay on 5HT2A sensor [1] is “do not activate the 5HT2A sensor assay in agonist mode”. In addition, in the assay on 5HT2A sensor [3], the “competition with 5-HT” value is on record as “can compete with 5HT binding to 5HT2A”.
As for L-MDMA, the “activation of the 5HT2A sensor assay” value in the assay with 5HT2A sensor [1] was “do not activate the 5HT2A sensor assay in agonist mode”.
As for R-MDMA, in the assay with 5HT2A sensor [1], the “activation of the 5HT2A sensor assay” value was “do not activate the 5HT2A sensor assay in agonist mode”.
